Read-outs that look alike come from different tables or passages of the source.
How the values were obtained:
hGLP-2 receptor [1] = target: T1, hGLP-2 receptor (Homo sapiens, UniProt O95838); assay: In vitro screening for agonism on the GLP-2 receptor recombinantly expressed in BHK-21 cells (CRE-luciferase reporter); assay type: cell-based
T1 construct: expressed in transfected cells; host or cells: BHK-21 (C13) cells, transient transfection with Lipofectamine 2000
T1 sequence (O95838 1-553): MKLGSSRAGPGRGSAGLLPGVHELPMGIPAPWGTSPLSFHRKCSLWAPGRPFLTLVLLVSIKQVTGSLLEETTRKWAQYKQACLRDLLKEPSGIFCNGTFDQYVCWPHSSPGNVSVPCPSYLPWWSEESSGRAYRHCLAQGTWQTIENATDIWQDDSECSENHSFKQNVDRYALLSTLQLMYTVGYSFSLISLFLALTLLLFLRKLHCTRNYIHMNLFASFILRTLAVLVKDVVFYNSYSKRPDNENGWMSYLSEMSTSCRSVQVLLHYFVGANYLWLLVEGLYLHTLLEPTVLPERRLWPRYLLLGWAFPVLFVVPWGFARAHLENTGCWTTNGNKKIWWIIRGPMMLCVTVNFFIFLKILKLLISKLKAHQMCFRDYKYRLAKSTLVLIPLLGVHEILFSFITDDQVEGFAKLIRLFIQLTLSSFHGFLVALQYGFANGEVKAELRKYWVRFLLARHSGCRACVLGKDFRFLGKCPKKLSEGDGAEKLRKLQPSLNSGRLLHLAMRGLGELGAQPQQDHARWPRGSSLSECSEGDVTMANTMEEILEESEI
Description: The screening was done using BHK21 cells transiently transfected with GLP-2 receptor and the CRE-luciferase reporter gene construct. Dose-response curves and EC50 values were determined using seven concentrations from 10 fM to 10 nM and triplicate points for each concentration. Control peptide was used on all test plates. BHK-21 cells are seeded in 10 cm TC-Petri dishes and grown to 70-80% confluency. Subsequently, medium is changed to serum-free transfection medium. DNA (7.5 μg hGLP-2 receptor vector and 7.5 μg CRE-luciferase vector) and Lipofectamine 2000 are diluted in OptiMEM, combined, and added to the cells after 20-30 min. Cells are incubated in the incubator at 37° C., 5% CO2 for 4 hr, trypsinized, and reseeded at 35,000 cells per well in 96-well plates. Cells are incubated overnight in full growth medium in order to allow expression of the transgenes. […] Baseline activity is controled with stimulation buffer alone. These solutions are pre-warmed to 37° C. for 30 min. Cells are rinsed with pre-warmed (37° C.) stimulation buffer, and incubated with 100 μl of the pre-warmed peptide dilutions and control for 5 hr at 37° C., 5% CO2. The LucLite enzyme substrate/lysis buffer is prepared shortly before the end of the incubation. 100 μl LucLite substrate are added to each well, and light emission is counted on a suitable counter (e.g. Wallac VictorII). EC50 values are derived from the raw data by fitting with a four parameter logistic equation (Microcal Origin 5.0 or GraphPad 4).

male C57BL mice [2] = assay: In vivo stimulation of intestinal growth, 800 nmol/kg (Example 10); design: key to Small intestine-colon sensitivity index: (SI/Colon) of compound divided by (SI/Colon) of reference GLP-2; conditions: 800 nmol/kg s.c. once daily for 3 days; for Sensitivity index Si/Colon / Sensitivity index Stomach/Co: relative to 1559; for Colon: colon mass relative to BW, % vs. [Gly2]GLP-2; for SI (% vs. [Gly2]GLP-2: small intestine mass relative to BW, [Gly2]GLP-2 = 100%; for Small intestine-colon sensitivity index: (SI/Colon)x/(SI/Colon)[Gly2]GLP-2
From the text: Individual groups (n=6-10) of mice were given 800 nmol/kg of each compound, s.c, once daily for three consecutive days. For comparison purposes other groups of animals were given either an equimolar dose of [[…]]GLP-2 (ZP1559) or vehicle (phosphate buffered saline, pH 7.4) in the same dosing regimen Twenty-four hours after the last dose of compound had been given the mice were sacrificed and the small intestine (from the pylorus to the cecum) and the colon (intestine distal to cecum) was emptied and weighed. To correct for slight difference in body weight (BW), the organ mass of the small intestine (SI) and colon were expressed relative to BW. The non-selective reference compound [[…]]GLP-2 has been reported to stimulate gastrointestinal growth in both esophagus, stomach, small intestine and colon and to evaluate differences in growth pattern induced by compounds, the small intestine-colon sensitivity index of compound X was calculated as: […]

male C57BL mice [3] = assay: In vivo stimulation of intestinal growth, 200 nmol/kg (Example 11); conditions: for Colon-BW, compared to 1559 in %: colon weight relative to body weight; for Colon-BW, compared to 1559 in % / SI-BW, compared to 1559 in %: relative to ZP1559; for Sensitivity index Si/Co: ratio SI-BW / Colon-BW; for SI-BW, compared to 1559 in %: small intestine weight relative to body weight
Summary of the method: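 Mice (n=6-10 per group) dosed s.c. at 200 nmol/kg once daily for three days; controls received equimolar [[MUT]]GLP-2 or PBS pH 7.4 vehicle.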

male C57BL mice [4] = assay: In vivo stimulation of stomach growth, 200 nmol/kg (Example 12); conditions: for Sensitivity index Stomach/Co: ratio Stomach-BW / Colon-BW; for Stomach-BW, compared to 1559 in %: stomach weight relative to body weight, relative to ZP1559
Summary of the method: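 Mice (n=6-10/group) received 200 nmol/kg s.c. once daily for 3 days, with PBS pH 7.4 vehicle and an equimolar GLP-2 comparator. Stomach/colon sensitivity index relative to GLP-2 was calculated, with ≥1.05 deemed stomach-selective.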

[5] = DPP IV degradation and renal clearance; Tavares et al. 2000; cited from earlier work
hGLP-2 receptor [6] = target: T2, hGLP-2 receptor (human, UniProt O95838 1-553); assay: cell-based or functional assay
T2 sequence (looked up): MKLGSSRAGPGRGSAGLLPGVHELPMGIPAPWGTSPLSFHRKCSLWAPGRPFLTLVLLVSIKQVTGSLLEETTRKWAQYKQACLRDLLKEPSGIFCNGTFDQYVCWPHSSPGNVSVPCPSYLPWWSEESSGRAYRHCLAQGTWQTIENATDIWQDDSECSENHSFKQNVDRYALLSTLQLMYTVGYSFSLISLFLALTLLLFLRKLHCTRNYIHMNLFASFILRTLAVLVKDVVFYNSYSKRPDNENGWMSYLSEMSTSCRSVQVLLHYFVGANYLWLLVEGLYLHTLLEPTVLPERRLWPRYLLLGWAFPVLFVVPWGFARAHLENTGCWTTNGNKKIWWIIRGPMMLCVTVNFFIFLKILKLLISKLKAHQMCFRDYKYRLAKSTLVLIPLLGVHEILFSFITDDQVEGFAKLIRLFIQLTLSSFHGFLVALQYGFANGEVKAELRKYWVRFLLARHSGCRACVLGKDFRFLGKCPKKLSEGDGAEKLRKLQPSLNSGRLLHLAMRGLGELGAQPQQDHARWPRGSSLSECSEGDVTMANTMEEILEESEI

[7] = BHK21 cells transiently transfected with GLP-2 receptor and CRE-luciferase, 10 fM to 10 nM, read-out: pEC50 (converted)

Row | Molecule | EC50 (hGLP-2 receptor [1]; [7]) | Colon-BW, compared to 1559 in % (male C57BL mice [2]) | SI-BW, compared to 1559 in % (male C57BL mice [2]) | Sto-BW, compared to 1559 in % (male C57BL mice [2]) | Sensitivity index Si/Colon (male C57BL mice [2]) | Sensitivity index Stomach/Co (male C57BL mice [2]) | Colon (male C57BL mice [2]) | SI (% vs. [Gly2]GLP-2 (male C57BL mice [2]) | pEC50 (CRE-luciferase reporter, BHK-21 cells transiently transfected with hGLP-2 receptor) (hGLP-2 receptor [6]) | other results
1 | H-HGEGSFSDELSTILESLAAADFIAWLIATKITD-NH2 [ZP2267] | 0.0135 nM | 109.4% | 108.5% | 85.9% | 0.99 | 0.79 | 109 ± 4% | 108 ± 2% |  | Organ selectivity (FIG. 8, unselective compounds) (male C57BL mice [2]): unselective for the small intestine, colon or stomach
2 | H-HGEGSFSDELATILESLAAADFISWLIATKITD-NH2 [ZP2272] | 0.00537 nM | 104.7% | 118.1% | 96% | 1.13 | 0.92 | 105 ± 6% | 118 ± 2% |  | Preferential stimulation of epithelial growth in the small intestine (summary) (male C57BL mice [2]): preferentially stimulating epithelial growth in the small intestine; Colon-BW, compared to 1559 in % (male C57BL mice [3]): 104.7%; Sensitivity index Si/Co (male C57BL mice [3]): 1.13; SI-BW, compared to 1559 in % (male C57BL mice [3]): 118.1%; Sensitivity index Stomach/Co (male C57BL mice [4]): 0.92; Stomach-BW, compared to 1559 in % (male C57BL mice [4]): 96%
3 | H-HGEGSFSDELATILEALAAADFIAWLIATKITD-NH2 [ZP2264] | 0.00316 nM | 109.5% | 125.7% | 87% | 1.15 | 0.79 | 109 ± 3 % | 126 ± 3 % |  | EC50 (hGLP-2 receptor [1]; agonism on GLP-2 receptor in BHK-21 cells, read-out: IC 50 (FIG. 5)): 0.00355 nM; Preferential stimulation of epithelial growth in the small intestine (summary) (male C57BL mice [2]): preferentially stimulating epithelial growth in the small intestine; Small intestine-colon sensitivity index (male C57BL mice [2]): 1.15 ± 0.03; Colon-BW, compared to 1559 in % (male C57BL mice [3]): 109.5%; Sensitivity index Si/Co (male C57BL mice [3]): 1.15; SI-BW, compared to 1559 in % (male C57BL mice [3]): 125.7%; Sensitivity index Stomach/Co (male C57BL mice [4]): 0.79; Stomach-BW, compared to 1559 in % (male C57BL mice [4]): 87%
4 | H-HGEGSFSDELNTILESLAASDFISWLISTKITD-NH2 [ZP2270] |  |  |  |  |  |  |  |  |  | EC50 (hGLP-2 receptor [1]): 0.0589 nM
5 | H-HGEGSFSDELETILEELAAEDFIEWLIETKITD-NH2 [ZP2266] | 0.558 nM | 100.6% | 95.3% | 93.6% | 0.95 | 0.93 | 101 ± 2% | 95 ± 1% |  | Organ selectivity (FIG. 8, unselective compounds) (male C57BL mice [2]): unselective for the small intestine, colon or stomach
6 | H-HGEGSFSDELKTILESLAAADFIEWLIQTKITD-NH2 [ZP2269] | 0.0912 nM | 94.7% | 97.4% | 99.8% | 1.03 | 1.05 | 95 ± 3% | 97 ± 2% |  | Organ selectivity (FIG. 8, unselective compounds) (male C57BL mice [2]): unselective for the small intestine, colon or stomach
7 | H-HGEGSFSDELATILEALAASDFISWLISTKITD-NH2 [ZP2268] |  | 112.5% | 123.6% | 87.4% | 1.10 | 0.78 | 112 ± 4 % | 124 ± 3 % |  | EC50 (hGLP-2 receptor [1]): 0.00617 nM; Preferential stimulation of epithelial growth in the small intestine (summary) (male C57BL mice [2]): preferentially stimulating epithelial growth in the small intestine; Small intestine-colon sensitivity index (male C57BL mice [2]): 1.10 ± 0.03; Colon-BW, compared to 1559 in % (male C57BL mice [3]): 112.5%; Sensitivity index Si/Co (male C57BL mice [3]): 1.10; SI-BW, compared to 1559 in % (male C57BL mice [3]): 123.6%; Sensitivity index Stomach/Co (male C57BL mice [4]): 0.78; Stomach-BW, compared to 1559 in % (male C57BL mice [4]): 87.4%
8 | H-HGEGSFSDELSTILESLAASDFISWLISTKITD-NH2 [ZP2263] | 0.0145 nM |  |  |  |  |  |  |  |  | 
9 | H-His-Ala-Asp-Gly-Ser-Phe-Ser-Asp-Glu-Met-Asn-Thr-Ile-Leu-Asp-Asn-Leu-Ala-Ala-Arg-Asp-Phe-Ile-Asn-Trp-Leu-Ile-Gln-Thr-Lys-Ile-Thr-Asp-OH [GLP-2(1-33)] |  |  |  |  |  |  |  |  |  | half life [5]: about 7 minutes
10 | H-HGEGSFSDELNTILESLAASDFISWLISTKITD-NH2 [ZP2270] |  |  |  |  |  |  |  |  | 10.2 | 
11 | H-HGEGSFSSELSTILDALAARDFIAWLIATKITDK-OH [ZP2242] |  |  |  |  |  |  |  |  | 12.4 | 
12 | H-HGEGSFSDELATILESLAAADFISWLIATKITD-NH2 [ZP2272] |  |  |  |  |  |  |  |  | 11.3 | 
13 | H-HGEGSFSDELATILEALAASDFISWLISTKITD-NH2 [ZP2268] |  |  |  |  |  |  |  |  | 11.2 | 
14 | H-HGEGSFSDELKTILESLAAADFIEWLIQTKITD-NH2 [ZP2269] |  |  |  |  |  |  |  |  | 10 | 
